In patent US9169251B2, “Pyrrolopyridine derivatives and their use as CRTH2 antagonists” (Novartis AG, priority 2004, dated 2015):

Target: T1, CRTh2 receptor (Homo sapiens, UniProt Q9Y5Y4)
T1 construct: expressed in transfected cells; host or cells: CHO.K1 (Chinese Hamster Ovary) cells, line CHO.K1-CRTh2
T1 sequence (Q9Y5Y4 1-395): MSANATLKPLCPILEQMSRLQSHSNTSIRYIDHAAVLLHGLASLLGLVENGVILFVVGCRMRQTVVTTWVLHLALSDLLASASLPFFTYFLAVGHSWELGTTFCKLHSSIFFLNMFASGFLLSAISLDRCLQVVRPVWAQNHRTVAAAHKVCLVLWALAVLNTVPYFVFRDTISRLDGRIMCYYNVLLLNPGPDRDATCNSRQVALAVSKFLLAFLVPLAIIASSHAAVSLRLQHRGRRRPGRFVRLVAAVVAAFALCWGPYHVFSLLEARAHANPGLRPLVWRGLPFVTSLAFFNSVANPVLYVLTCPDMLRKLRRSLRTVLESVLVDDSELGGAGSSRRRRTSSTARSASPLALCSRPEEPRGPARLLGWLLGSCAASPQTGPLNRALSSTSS
Assay: Filtration binding assay: competition with [3H]-PGD2 on CHO.K1-CRTh2 membranes (called SPA binding assay)
Settings: [3H]-PGD2 2.5 nM
Procedure: Filtration Binding Assay Protocol
The binding of CRTh2 antagonists is determined using membranes prepared from human CRTh2-expressing Chinese Hamster Ovary cells (CHO.K1-CRTh2). To produce cell membranes CHO.K1-CRTh2 cells cultured in roller bottles are harvested using cell dissociation buffer (Invitrogen). The cells are pelleted by centrifugation (167 g, 5 min). […] At 4° C. cells are homogenized using a Polytron® (IKA Ultra Turrax T25) for 5 bursts of 1 second.
The binding of [^3H]-PGD2 (157 Ci/mmol) to CHO.K1-CRTh2 membranes is determined in the absence (total binding) and presence (non-specific binding) of unlabelled PGD2 (1 μM). Subtraction of the cpm (counts per minute) of [^3H]-PGD2 binding in presence of excess unlabelled PGD2 from that observed in the absence of excess unlabelled PGD2 is defined as specific binding. […]
The plates are incubated at room temperature on a shaker for 1 hour, and then harvested (Tomtec Harvester 9600) onto GF/C filter plates using wash buffer (10 mM HEPES-KOH, pH 7.4). […] Plates are then counted using a Packard Top Count instrument, Plates are then read on the Packard Topcount with the 3H Scintillation program (1 min per well). […]
Ki values are determined using Sigma Plot™ software, using the Cheng-Prussoff equation. […]

Work on `Cc1c(CC(=O)O)c2cccnc2n1Cc1ccc(S(C)(=O)=O)cc1C(F)(F)F` [Example 95, [1-(4-Methanesulfonyl-2-trifluoromethyl-benzyl)-2-methyl-1H-pyrrolo[2,3-b]pyridin-3-yl]-acetic acid] yielded a Ki of 4 nM.
